Laboratory results published in patent US20050101595A1, “N-containing cycloalkyl-substituted amino-thiazole derivatives and pharmaceutical compositions for inhibiting cell proliferation and methods for their use” (PFIZER INC., priority 2003, published 2005).
Structures can show the parent of a compound that is named as a salt. Where two headings read alike, the source gives them in different places.

What was measured:
[1] = target: CDK2/Cyclin A (Homo sapiens, UniProt P24941); assay: Inhibition of CDK2/Cyclin A Retinoblastoma Kinase Activity; assay type: biochemical; conditions: for CDK2 % Inhibition At 0.03 μM: Table 2; for Ki: apparent Ki, CDK2/proteolyzed cyclin A, Rb fragment substrate, 25 μM ATP
Procedure, shortened: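 Human CDK2, baculovirus/insect-cell expressed, complexed with proteolyzed cyclin A (10 nM or 19 nM CDK2) phosphorylates an Rb fragment with 25 μM [32P/33P]ATP at pH 7.4, 30° C, for 60 or 75 minutes under initial-rate conditions. Filter-captured radioactivity is read by phosphorimager; apparent Ki from competitive-inhibition fits.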

[2] = target: human CDK4 and genetically truncated (1-264) cyclin D3 (Homo sapiens, UniProt P11802); assay: Inhibition of CDK4/Cyclin D Retinoblastoma Kinase Activity; assay type: biochemical; conditions: for Ki: apparent Ki, CDK4/truncated cyclin D3, Rb fragment substrate, 25 μM ATP
Procedure, shortened: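 Read-out: 32P/33P incorporation into Rb fragment (386-928) captured on nitrocellulose, phosphorimager. Enzyme 5 nM CDK4/cyclin D3(1-264) from insect cells; ATP 25 μM, pH 7.4, 30 °C, 20 min (60 min for tight binders). Ki from competitive fits.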

[3] = system: HCT-116 cell line; assay: Inhibition of cell growth, tetrazolium salt (MTT) assay; assay type: cell-based; conditions: for HCT-116 % Inhibition at 0.25 μM: 0.25 μM compound; for IC50: Homo sapiens, HCT-116, 120 h, MTT, three to five days, read-out: HCT-116 IC50
Procedure, shortened: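 Growth inhibition by MTT reduction at 540 nm (0.2 mg/mL, 4 h at 37° C, formazan dissolved in DMSO), normalized to cells given only 0.5% v/v DMSO. HCT-116 cultures in McCoy's 5A were dosed 4 h post-plating and kept three to five days at 37° C, 5% CO2.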

human CDK4 and genetically truncated (1-264) cyclin D3, sequence (P11802 whole entry, the tested form may be a part): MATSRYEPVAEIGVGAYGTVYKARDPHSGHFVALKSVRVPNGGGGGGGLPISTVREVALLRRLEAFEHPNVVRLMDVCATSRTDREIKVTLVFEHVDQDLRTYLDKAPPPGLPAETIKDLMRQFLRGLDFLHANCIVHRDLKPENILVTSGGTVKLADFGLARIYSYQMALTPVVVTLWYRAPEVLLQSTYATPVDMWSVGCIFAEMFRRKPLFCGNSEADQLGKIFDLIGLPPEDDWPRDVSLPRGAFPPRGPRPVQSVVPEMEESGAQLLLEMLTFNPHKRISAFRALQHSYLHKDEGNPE
human CDK4 and genetically truncated (1-264) cyclin D3, sequence (P30281 1-264 partner): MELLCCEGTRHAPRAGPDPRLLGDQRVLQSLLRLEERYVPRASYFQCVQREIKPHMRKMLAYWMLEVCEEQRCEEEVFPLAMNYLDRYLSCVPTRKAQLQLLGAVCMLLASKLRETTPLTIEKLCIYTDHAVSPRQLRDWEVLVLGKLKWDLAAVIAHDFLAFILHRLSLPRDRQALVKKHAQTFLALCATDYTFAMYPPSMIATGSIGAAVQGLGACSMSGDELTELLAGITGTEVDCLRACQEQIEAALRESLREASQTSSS

COC(=O)[C@H](Cc1ccccc1)NC(=O)N1CCC(Nc2nc(N)c(C(=O)c3c(F)cccc3F)s2)CC1 [Example O78]
CDK2 % Inhibition At 0.03 μM ([1]; 0.03 μM compound): 25%
CDK4 % Inhibition at 0.03 μM ([2]; 0.03 μM compound, Table 2): 14%
HCT-116 % Inhibition at 0.25 μM ([3]; HCT-116, Table 2): 47%

Nc1nc(NC2CCN(C(=O)c3ccccc3OC(F)(F)F)CC2)sc1C(=O)c1c(F)cccc1F [Example R23]
CDK2 % Inhibition at 0.03 μM ([1]; at 0.03 μM): −6%
CDK4 % Inhibition at 0.03 μM ([2]; at 0.03 μM): 34%
HCT-116 % Inhibition at 0.1 μM ([3]; HCT-116 cells, at 0.1 μM): 2%
HCT-116 5 Inhibition at 0.25 μM ([3]; HCT-116 cells): 38

Nc1nc(NC2CCN(C(=O)n3ccnc3)CC2)sc1C(=O)c1c(F)cccc1F [Example C17, {4-[4-Amino-5-(2,6-difluoro-benzoyl)-thiazol-2-ylamino]-piperidin-1-yl}-imidazol-1-yl-methanone]
Ki [1]: 17 nM
Ki [2]: 21 nM
IC50 ([3]; first HCT-116 column (c4)): 2100 nM
IC50 ([3]; second HCT-116 column (c5)): 4400 nM

CC(C)S(=O)(=O)c1csc(C(=O)N2CCC(Nc3nc(N)c(C(=O)c4c(F)cccc4F)s3)CC2)c1 [Example R63]
CDK2 % Inhibition at 0.03 μM ([1]; at 0.03 μM): 11%
CDK4 % Inhibition at 0.03 μM ([2]; at 0.03 μM): 12%
HCT-116 % Inhibition at 0.1 μM ([3]; HCT-116 cells, at 0.1 μM): 0%
HCT-116 5 Inhibition at 0.25 μM ([3]; HCT-116 cells): 38

Nc1nc(NC2CCN(C(=O)C3CCCCC3)CC2)sc1C(=O)c1c(F)cccc1F [Example Q59]
CDK2 % Inhibition at 0.03 μM ([1]; 0.03 μM compound, Table 4): 10%
CDK4 % Inhibition at 0.03 μM ([2]; 0.03 μM compound, Table 4): 14%
HCT-116 % Inhibition at 0.1 μM ([3]; 0.1 μM compound, HCT-116, Table 4): 0%
HCT-116 % Inhibition at 0.25 μM ([3]; HCT-116, Table 4): 30%

CN(C)CCCSc1ccc(S(=O)(=O)N2CCC(Nc3nc(N)c(C(=O)c4c(F)cccc4F)s3)CC2)cn1 [Example L5, 1-(4-Amino-2-{1-[6-(3-dimethylamino-propylsulfanyl)-pyridine-3-sulfonyl]-piperidin-4-ylamino}-thiazol-5-yl)-1-(2,6-difluoro-phenyl)-methanone Dihydrochloride.]
Ki [1]: 1.5 nM
Ki [2]: 0.67 nM
IC50 ([3]; first HCT-116 column (c4)): 70 nM
IC50 ([3]; second HCT-116 column (c5)): > 500 nM

Nc1nc(NC2CCN(C(=O)C3(c4ccccc4)CC3)CC2)sc1C(=O)c1c(F)cccc1F [Example R90]
CDK2 % Inhibition at 0.03 μM ([1]; at 0.03 μM): −2%
CDK4 % Inhibition at 0.03 μM ([2]; at 0.03 μM): −6%
HCT-116 % Inhibition at 0.1 μM ([3]; HCT-116 cells, at 0.1 μM): 0%
HCT-116 5 Inhibition at 0.25 μM ([3]; HCT-116 cells): 19

CC(=Cc1ccccc1)C(=O)N1CCC(Nc2nc(N)c(C(=O)c3c(F)cccc3F)s2)CC1 [Example R161]
CDK2 % Inhibition at 0.03 μM ([1]; at 0.03 μM): 26%
CDK4 % Inhibition at 0.03 μM ([2]; at 0.03 μM): 53%
HCT-116 % Inhibition at 0.1 μM ([3]; HCT-116 cells, at 0.1 μM): 0%
HCT-116 5 Inhibition at 0.25 μM ([3]; HCT-116 cells): 34

CCn1nc(C)c(Br)c1C(=O)N1CCC(Nc2nc(N)c(C(=O)c3c(F)cccc3F)s2)CC1 [Example R68]
CDK2 % Inhibition at 0.03 μM ([1]; at 0.03 μM): 22%
CDK4 % Inhibition at 0.03 μM ([2]; at 0.03 μM): 15%
HCT-116 % Inhibition at 0.1 μM ([3]; HCT-116 cells, at 0.1 μM): 0%
HCT-116 5 Inhibition at 0.25 μM ([3]; HCT-116 cells): 33

CN(C)CCc1ncc(S(=O)(=O)N2CCC(Nc3nc(N)c(C(=O)c4c(F)cccc4F)s3)CC2)cn1 [Example N12, (4-Amino-2-{1-[2-(2-dimethylamino-ethyl)-pyrimidine-5-sulfonyl]-piperidine-4-ylamino}-thiazol-5-yl)-(2,6-difluoro-phenyl)-methanone Hydrochloride Salt.]
Ki [1]: 1.7 nM
Ki [2]: 0.62 nM
IC50 ([3]; first HCT-116 column (c4)): 67 nM
IC50 ([3]; second HCT-116 column (c5)): 130 nM

CCC(Oc1ccccc1)C(=O)N1CCC(Nc2nc(N)c(C(=O)c3c(F)cccc3F)s2)CC1 (stereo not shown) [Example R162]
CDK2 % Inhibition at 0.03 μM ([1]; at 0.03 μM): 27%
CDK4 % Inhibition at 0.03 μM ([2]; at 0.03 μM): 32%
HCT-116 % Inhibition at 0.1 μM ([3]; HCT-116 cells, at 0.1 μM): 0%
HCT-116 5 Inhibition at 0.25 μM ([3]; HCT-116 cells): 34

Cc1ccc(S(=O)(=O)NC(=O)N2CCC(Nc3nc(N)c(C(=O)c4c(F)cccc4F)s3)CC2)cc1 [Example O25]
CDK2 % Inhibition At 0.03 μM ([1]; 0.03 μM compound): 31%
CDK4 % Inhibition at 0.03 μM ([2]; 0.03 μM compound, Table 2): 3%
HCT-116 % Inhibition at 0.25 μM ([3]; HCT-116, Table 2): 27%

Nc1nc(NC2CCN(C(=O)c3ccc(Cl)cc3Cl)CC2)sc1C(=O)c1c(F)cccc1F [Example R107]
CDK2 % Inhibition at 0.03 μM ([1]; at 0.03 μM): 44%
CDK4 % Inhibition at 0.03 μM ([2]; at 0.03 μM): 63%
HCT-116 % Inhibition at 0.1 μM ([3]; HCT-116 cells, at 0.1 μM): 8%
HCT-116 5 Inhibition at 0.25 μM ([3]; HCT-116 cells): 48

CCOC(=O)C(C)NC(=O)N1CCC(Nc2nc(N)c(C(=O)c3c(F)cccc3F)s2)CC1 (stereo not shown) [Example O72]
CDK2 % Inhibition At 0.03 μM ([1]; 0.03 μM compound): 24%
CDK4 % Inhibition at 0.03 μM ([2]; 0.03 μM compound, Table 2): 11%
HCT-116 % Inhibition at 0.25 μM ([3]; HCT-116, Table 2): 62%

Nc1nc(NC2CCN(C(=O)c3cccnc3Oc3ccccc3)CC2)sc1C(=O)c1c(F)cccc1F [Example R27]
CDK2 % Inhibition at 0.03 μM ([1]; at 0.03 μM): 6%
CDK4 % Inhibition at 0.03 μM ([2]; at 0.03 μM): 19%
HCT-116 % Inhibition at 0.1 μM ([3]; HCT-116 cells, at 0.1 μM): 0%
HCT-116 5 Inhibition at 0.25 μM ([3]; HCT-116 cells): 43

CN1CCCC1c1ccc(S(=O)(=O)N2CCC(Nc3nc(N)c(C(=O)c4c(F)cccc4F)s3)CC2)cc1 (stereo not shown) [Example F24, 1-[4-Amino-2-{1-[4-(1-methyl-pyrrolidin-2-y)-benzenesulfonyl]-piperidin-4-ylamino}-thiazol-5-yl)-1-(2,6-difluoro-phenyl)-methanone Dihydrochloride]
Ki [1]: < 1 nM
Ki [2]: 0.34 nM
IC50 ([3]; first HCT-116 column (c4)): 590 nM
IC50 ([3]; second HCT-116 column (c5)): 1600 nM

Nc1nc(NC2CCN(S(=O)(=O)c3cccc4cccnc34)CC2)sc1C(=O)c1c(F)cccc1F [Example P6]
CDK2 % Inhibition at 0.03 μM ([1]; 0.03 μM compound, Table 3): −32%
CDK4 % Inhibition at 0.03 μM ([2]; 0.03 μM compound, Table 3): 18%
HCT-116 % Inhibition at 0.1 μM ([3]; 0.1 μM compound, HCT-116, Table 3): 22%
HCT-116 % Inhibition at 0.25 μM ([3]; HCT-116, Table 3): 23%

Nc1nc(NC2CCN(C(=O)Nc3cccc4ccccc34)CC2)sc1C(=O)c1c(F)cccc1F [Example O35]
CDK2 % Inhibition At 0.03 μM ([1]; 0.03 μM compound): 29%
CDK4 % Inhibition at 0.03 μM ([2]; 0.03 μM compound, Table 2): 5%
HCT-116 % Inhibition at 0.25 μM ([3]; HCT-116, Table 2): 0%

COc1ccccc1NC(=O)N1CCC(Nc2nc(N)c(C(=O)c3c(F)cccc3F)s2)CC1 [Example O7]
CDK2 % Inhibition At 0.03 μM ([1]; 0.03 μM compound): 40%
CDK4 % Inhibition at 0.03 μM ([2]; 0.03 μM compound, Table 2): 10%
HCT-116 % Inhibition at 0.25 μM ([3]; HCT-116, Table 2): 43%

Nc1nc(NC2CCN(S(=O)(=O)CCSC3CCCC3)CC2)sc1C(=O)c1c(F)cccc1F [Example K38, {4-Amino-2-[1-(2-cyclopentylsulfanyl-ethanesulfonyl)-piperidin-4-ylamino]-thiazol-5-yl}-(2,6-difluoro-phenyl)-methanone Trifluoroacetic Acid Salt.]
Ki [1]: 7.9 nM
Ki [2]: 6.4 nM
IC50 ([3]; first HCT-116 column (c4)): 460 nM
IC50 ([3]; second HCT-116 column (c5)): 3000 nM

Nc1nc(NC2CCN(C(=O)c3c(F)ccc(F)c3F)CC2)sc1C(=O)c1c(F)cccc1F [Example R37]
CDK2 % Inhibition at 0.03 μM ([1]; at 0.03 μM): 27%
CDK4 % Inhibition at 0.03 μM ([2]; at 0.03 μM): 22%
HCT-116 % Inhibition at 0.1 μM ([3]; HCT-116 cells, at 0.1 μM): 0%
HCT-116 5 Inhibition at 0.25 μM ([3]; HCT-116 cells): 48

CCOC(=O)C(Cc1ccccc1)NC(=O)N1CCC(Nc2nc(N)c(C(=O)c3c(F)cccc3F)s2)CC1 (stereo not shown) [Example O75]
CDK2 % Inhibition At 0.03 μM ([1]; 0.03 μM compound): 25%
CDK4 % Inhibition at 0.03 μM ([2]; 0.03 μM compound, Table 2): 10%
HCT-116 % Inhibition at 0.25 μM ([3]; HCT-116, Table 2): 41%
